Experimental data: paper PMC9986249, “Comparative study on antibacterial characteristics of the multiple liver expressed antimicrobial peptides (LEAPs) in teleost fish” (Frontiers in Immunology, 2023)
No end group written: not given here.

Experiments:
V. fluvialis WY91-24-3 = assay: Bacterial membrane permeability assay (PI influx, flow cytometry); format: cell-based, Vibrio fluvialis; details: peptide 8 μM, 10 mM NaPB pH 7.4, 37°C, 1 h; PI 9 μM; flow cytometry, 3,000 events; representative of three independent experiments
Procedure: The membrane permeability of bacteria after the treatment of peptides was assessed by flow cytometry as previously described ([33]) with minor modifications. In brief, V. fluvialis WY91-24-3 were cultured to mid-logarithmic phase, then washed twice and resuspended to 10^6 CFU/ml with 10 mM NaPB (pH 7.4). Thereafter, 40 μl of peptides diluted in NaPB was added to 160 μl of V. fluvialis to give a final concentration of 8 μM. LL37 and NaPB was used as the positive and negative control, respectively. After being incubated at 37°C for 1 h, propidium iodide (PI; Sigma-Aldrich) was added to the bacterial suspension at a final concentration of 9 μM. The PI positive bacterial cells were detected using the flow cytometer FACSVerse (BD Biosciences) at 3,000 events and the data were analyzed using the FlowJo software v10 (Tree Star).
Figure 6 Antibacterial mechanisms of LEAPs. (A–J) Membrane permeability of V. fluvialis treated with LEAPs. The bacteria were incubated with LEAPs (8 μM) at 37°C for 1 h, and a bacterial suspension without peptide was included as a control (Ctrl). Then PI (9 μM) was added and the influx of PI was detected by flow cytometry. Data are representative results of three independent experiments. (K) The data in (A–J) were analyzed statistically. The p value was calculated by one-way ANOVA with a Dunnett post hoc test. Different letters indicate significant differences (p<0.05). […]

[1] = tested on: Gram-positive and Gram-negative bacteria; details: cited from earlier work
Description: Mammalian LEAP-2 is a single gene, which is mainly expressed by the liver, and to a certain extent by other tissues ([18]). For example, mouse LEAP-2 is mainly expressed in the liver and small intestine ([18]). […] Therefore, LEAP-2 may have other physiological functions besides sterilization. However, unlike mammals with a single LEAP-2 ...

Substance: LL-37: human AMP LL-37, positive control of the membrane permeability assay (LLGDFFRKSKEKIGKEFKRIVQRIKDFLRNLVPRTES; Antibacterial peptide LL-37; UniProt P49913 134-170, looked up)
- PI positive bacterial cells (V. fluvialis WY91-24-3): 85.2%

Substance: cleaved form 44-77: cleaved form 44-77 of human LEAP-2 (GVSLRPIGASCRDDSECITRLCRKRRCSLSVAQE; ends and bridges not checked; cysteine pairing not given here; UniProt Q969E1 44-77, looked up, fragment)
- antibacterial activity [1]: loses antibacterial activity

Substance: mature peptide 38-77 of human LEAP-2: mature peptide 38-77 of human LEAP-2 (MTPFWRGVSLRPIGASCRDDSECITRLCRKRRCSLSVAQE; ends and bridges not checked; cysteine pairing not given here; UniProt Q969E1 38-77, looked up)
- antibacterial activity [1]: different killing effects
